# Reference: ChEMBL document CHEMBL1130556, “Synthesis and activity of brefeldin a analogs as inducers of cancer cell differentiation and apoptosis” (Bioorg Med Chem Lett, 1997)
# Key:
# Type in all cases: functional, cell-based
# Settings in all cases: Homo sapiens
# HCT-116 [1] = test: Effect on apoptotic DNA fragmentation to differentitiate HCT 116 cells, at a concentration of 3.2 uM, 1.0 ug/ml was determined; - = Not potent
# HCT-116 [2] = test: Effect on apoptotic DNA fragmentation to differentitiate HCT 116 cells, at a concentration of 4.1 uM, 1.2 ug/ml was determined; + = Potent
# HCT-116 [3] = test: Effect on apoptotic DNA fragmentation to differentitiate HCT 116 cells, at a concentration of 0.11 uM, 0.03 ug/ml was determined; + = Potent
# HCT-116 [4] = test: Effect on apoptotic DNA fragmentation to differentitiate HCT 116 cells, at a concentration of 3.5 uM, 1.0 ug/ml was determined; - = Not potent
# HCT-116 [5] = test: Effect on apoptotic DNA fragmentation to differentitiate HCT 116 cells, at a concentration of 3.6 uM, 1.0 ug/ml was determined; - = Non potent
# HCT-116 [6] = test: Effect on apoptotic DNA fragmentation to differentitiate HCT 116 cells, at a concentration of 3.4 uM, 1.0 ug/ml was determined; - = Not potent
# HCT-116 [7] = test: Effect on apoptotic DNA fragmentation to differentitiate HCT 116 cells, at a concentration of 0.85 uM, 0.25 ug/ml was determined; - = Not potent
# HCT-116 [8] = test: Effect on apoptotic DNA fragmentation to differentitiate HCT 116 cells, at a concentration of 0.16 uM, […] was determined; + = Potent
# HCT-116 [9] = test: Effect on apoptotic DNA fragmentation to differentitiate HCT 116 cells, at a concentration of 5.2 uM, 2.0 ug/ml was determined; - = Not potent
# HCT-116 [10] = test: Effect on apoptotic DNA fragmentation to differentitiate HCT 116 cells, at a concentration of 6.4 uM, 2.0 ug/ml was determined; - = Not potent
# HCT-116 [11] = test: Effect on apoptotic DNA fragmentation to differentitiate HCT 116 cells, at a concentration of 0.27 uM, 0.1 ug/ml was determined; + = Potent
# HCT-116 [12] = test: Effect on apoptotic DNA fragmentation to differentitiate HCT 116 cells, at a concentration of 1.6 uM, 0.5 ug/ml was determined; + = Potent
compound,measurement,setting,value
CO[C@@H]1C[C@@H]2[C@H](/C=C\CCC[C@H](C)OC(=O)/C=C/[C@H]2OC)C1,DNA fragmentation,HCT-116 [1],Not potent
C[C@H]1CCC[C@@H]2O[C@@H]2[C@@H]2C[C@H](O)C[C@H]2[C@H](O)/C=C/C(=O)O1,DNA fragmentation,HCT-116 [2],Potent
C[C@H]1CCC/C=C\[C@@H]2C[C@H](O)C[C@H]2[C@H](O)/C=C/C(=O)O1,DNA fragmentation,HCT-116 [3],Potent
C[C@H]1CCCCC[C@@H]2C[C@H](O)C[C@H]2[C@H](O)CCC(=O)O1,DNA fragmentation,HCT-116 [4],Not potent
C[C@H]1CCC/C=C\[C@@H]2CC(=O)C[C@H]2C(=O)CCC(=O)O1,DNA fragmentation,HCT-116 [5],Non potent
C[C@@H](O)CCC/C=C\[C@@H]1C[C@H](O)C[C@H]1[C@H](O)/C=C/C(=O)O,DNA fragmentation,HCT-116 [6],Not potent
CO[C@@H]1/C=C/C(=O)O[C@@H](C)CCC/C=C\[C@@H]2C[C@H](O)C[C@H]21,DNA fragmentation,HCT-116 [7],Not potent
CC(=O)O[C@@H]1C[C@H]2[C@H](O)/C=C/C(=O)O[C@@H](C)CCC/C=C\[C@@H]2C1,DNA fragmentation,HCT-116 [8],Potent
C[C@@H](O)CCC/C=C\[C@@H]1C[C@H](O)C[C@H]1[C@H](O)/C=C/C(=O)OCc1ccccc1,DNA fragmentation,HCT-116 [9],Not potent
C[C@H]1CCC/C=C\[C@@H]2CC(=O)C[C@H]2[C@H](O)/C=C/C(=O)O1,DNA fragmentation,HCT-116 [5],Non potent
COC(=O)/C=C/[C@@H](O)[C@@H]1C[C@@H](O)C[C@H]1/C=C\CCC[C@@H](C)O,DNA fragmentation,HCT-116 [10],Not potent
CC(=O)O[C@@H]1C[C@@H]2[C@H](/C=C\CCC[C@H](C)OC(=O)/C=C/[C@H]2OC(C)=O)C1,DNA fragmentation,HCT-116 [11],Potent
CC(=O)O[C@@H]1/C=C/C(=O)O[C@@H](C)CCC/C=C\[C@@H]2C[C@H](O)C[C@H]21,DNA fragmentation,HCT-116 [12],Potent
